Results published in publication PMC7426938, “Induction of mitochondria-mediated apoptosis and suppression of tumor growth in zebrafish xenograft model by cyclic dipeptides identified from Exiguobacterium acetylicum” (Scientific Reports, 2020).

Legend:
[1] = system: Colorectal cancer HT-29 cells; assay: MTT cell viability assay, HT-29; assay type: cell-based; conditions: Homo sapiens; for viability at 125 µM: 24 h treatment, read-out: relative percentage viability of HT-29 cells; for IC50: 24 h, MTT, read-out: HT-29 cells inhibitory (IC50) dose
Experimental: Human colorectal cancer (HT-29) and mouse embryonic fibroblast (3T3) cells were obtained from the American Type Culture Collection Centre (ATCC, VA, USA). Both cells were grown in Dulbecco Modified Eagle's Medium (DMEM, HiMedia, India) supplemented with 10% heat-inactivated fetal bovine serum (FBS), penicillin (50 units/mL), and streptomycin (50 µg/mL) and were cultured at 37 °C, 5% CO2 in a humidified atmosphere.
Cytotoxicity of the identified those DKPs were determined by cell viability study with the MTT (3-(4, 5-dimethylthiazol-2yl)-2, 5-diphenyltetrazolium bromide) reduction assay[49]. Briefly, 1.5 × 10^4 cells/well (HT-29) and 1.7 × 10^4 cells/well (3T3) cells were seeded into 96-well plates. They were incubated for 24 h at 37 °C with 5% CO2 and 95% relative humidity atmosphere. After 24 h, identified DKPs were added different concentrations (12.5 to 200 µM) into culture media in triplicates and re-incubated under the same culture conditions mentioned above. The final concentration of DMSO solution was 0.25% in the cells served as a negative control. Then culture media was removed from the plates, and 100 μL of freshly prepared MTT solution in serum-free medium (5 mg/mL) was added to each well and further incubated for 4 h. After that, 150 μL of DMSO solution was added under dark conditions and kept for 30 min at room temperature. The absorbance of the formazan product was measured at 595 nm in the microplate reader (Imark, Biorad). The percentage viability of the cells was measured by using the formula: Cell viability (%) = [(test/control) × 100)].
Results were expressed as mean ± standard deviation (SD). Data were analyzed one-way analysis of variance (ANOVA), followed by Student’s two-tailed t-test for comparison between two groups and Dunnett’s t-test was used when the data involved three or more groups. A value of p < 0.05 was considered statistically significant. All statistical analyses and inhibitory concentration (IC50) were determined by graph-pad prism statistical software (San Diego, CA, USA).

zebrafish (ABiC) embryos = assay: Zebrafish embryo developmental toxicity assay; assay type: in vivo, zebrafish (Danio rerio); parameters: unit not given here
Experimental: Laboratory animal care principles were followed and experimental procedures were conducted following guidelines established by the Institutional Animal Care, and Use Committee (IACUC), and every effort was made to minimize suffering. This study was approved by the IACUC of the Kaohsiung Medical University, Kaohsiung, Taiwan (Approval No: KMU-IACUC-105213). The wild-type (ABiC strain) zebrafish (Danio rerio) were maintained at 28 °C on a 14 h/10 h light/dark cycle under standard circulating water systems and fed with hatched brine shrimp. Embryos were obtained by natural mating male fish with female fish (2:3) in a water tank and eggs were maintained in a plastic Petri dish containing ad libitum water. After 4 h incubation, embryos were randomly divided into five experimental groups (control (without treatment), sham/vehicle control (DMSO), and three treatment groups for each cyclic dipeptide. Each group had 45 embryos per test dosage. All DKPs were tested at different doses varied from 50, 100 and 200 μM, respectively. After drug treatment, embryos were maintained in an incubator at 28 °C. The survival rate and embryonic developmental changes were observed by using an inverted microscope every 24 h interval for 96 h (Nikon Eclipse TE2000-U, Tokyo, Jap).

[2] = system: CM-Dil labelled HT-29 xenograft in zebrafish embryos; assay: Zebrafish HT-29 xenograft antitumor assay; assay type: in vivo, zebrafish (Danio rerio); parameters: inhibition of tumor growth: concentration or dose not given beside the values; conditions: for inhibition of tumor growth rate: 48 hpi; for inhibition of tumor growth rate / tumor growth reduction: 200 μM; for tumor growth reduction: 72 hpi; for inhibition of tumor growth: 24 hpi
Experimental: For cell labelling, HT-29 cells were incubated with cell tracker CM-Dil (Invitrogen, Carlsbad, CA, USA) dye at a final volume was 20 µL/mL for 25 min at 37 °C. To remove the unstrained dye, cells were washed twice and re-suspended with 1X PBS, pH 7.4 to a final density of 2.1 × 10^6 cells/mL. Prior transplantation, CM-Dil labelled cells were assessed for viability using trypan blue exclusion assay. More than > 90% of viable cells were used. For xenotransplantation, 48-hours post-fertilization (hpf) wild-type ABiC embryos were anaesthetized in 0.01% tricaine methanesulfonate (Sigma-Aldrich; MS222) solution containing 0.3% phenylthiocarbamide (PTU; Sigma-Aldrich; P7629). After anesthetization, CM-Dil (a lipophilic fluorescent tracking dye) labelled HT-29 cells grafted into the yolk sac of each zebrafish embryos by using a microinjector IM-300 (Narishige, Tokyo, Japan). After injection, embryos were incubated for 1 h at 28 °C. For confirmation of the visible cell mass at the injection site, zebrafish were transferred to an incubator and maintained at 37 °C.
[…] CM-Dil labelled HT-29 xenograft zebrafish embryos were randomly selected and hosed into 4 replicate wells in 12-well cell culture plates (5 embryos/well; 20 embryos/treatment group; 20 × 4 = 80). The different doses (50, 100 and 200 μM) of all DKPs were treated with transplanted embryos. Before DKPs treatment, the initial fluorescence intensity of transplanted cancer cells was measured at 0 hour post-injection (hpi). At the end of experiment 24, 48, and 72 hpi, all embryos were selected from each well and were photographed under an inverted fluorescence microscope (Nikon Eclipse TE2000-U, Tokyo, Japan). The following acquisition parameters were employed over time: Image scaling: Low = 130; High = 2,900; Exposure Time = 100 ms and Binning = 1. The fluorescence intensity of the tumor in the embryos was measured and the percentage of tumor growth inhibition was calculated according to the following formula: Inhibitionrate(%)=Z(Negativecontrol)-Z(Treatment)/Z(Negativecontrol)×100%

| SMILES | viability at 125 µM [1] [%] | IC50 [1] [µM] | Mean survival rate of zebrafish embryos (zebrafish (ABiC) embryos; 24 hpf, 50 μM) | Mean survival rate of zebrafish embryos (zebrafish (ABiC) embryos; 24 hpf, 100 μM) | Mean survival rate of zebrafish embryos (zebrafish (ABiC) embryos; 24 hpf, 200 μM) | Mean survival rate of zebrafish embryos (zebrafish (ABiC) embryos; 48 hpf, 50 μM) | Mean survival rate of zebrafish embryos (zebrafish (ABiC) embryos; 48 hpf, 100 μM) | Mean survival rate of zebrafish embryos (zebrafish (ABiC) embryos; 48 hpf, 200 μM) | Mean survival rate of zebrafish embryos (zebrafish (ABiC) embryos; 72 hpf, 50 μM) | Mean survival rate of zebrafish embryos (zebrafish (ABiC) embryos; 72 hpf, 100 μM) | Mean survival rate of zebrafish embryos (zebrafish (ABiC) embryos; 72 hpf, 200 μM) | Mean survival rate of zebrafish embryos (zebrafish (ABiC) embryos; 96 hpf, 50 μM) | Mean survival rate of zebrafish embryos (zebrafish (ABiC) embryos; 96 hpf, 100 μM) | Mean survival rate of zebrafish embryos (zebrafish (ABiC) embryos; 96 hpf, 200 μM) | inhibition of tumor growth rate [2] [%] | tumor growth reduction [2] [%] | inhibition of tumor growth [2] [%] | tumor growth inhibition rates compared to other peptides ([2]; all time intervals, different doses) |
| --- | --- | --- | --- | --- | --- | --- | --- | --- | --- | --- | --- | --- | --- | --- | --- | --- | --- | --- |
| CC(C)C[C@@H]1NC(=O)[C@@H]2CCCN2C1=O [DKP-1, cyclo (L-Pro-L-Leu)] | 36.3 ± 5.08 | 100 | 70.88 ± 3.44 | 73.33 ± 5.96 | 75 ± 5.77 | 70.88 ± 5.96 | 71.11 ± 1.54 | 73.33 ± 3.32 | 71.11 ± 3.44 | 71.11 ± 5.55 | 68.88 ± 6.91 | 66.66 ± 5.96 | 71.11 ± 9.10 | 66.66 ± 5.96 | 57 | 68 | – | – |
| CC(C)[C@@H]1NC(=O)[C@@H]2CCCN2C1=O [DKP-2, cyclo (L-Pro-L-Val)] | 42.3 ± 2.25 | 118 | 77.77 ± 5.41 | 82.22 ± 4.41 | 75.55 ± 3.44 | 80 ± 5.96 | 80 ± 5.96 | 75.55 ± 3.44 | 68.88 ± 3.44 | 77.33 ± 3.44 | 71.11 ± 6.88 | 66.66 ± 5.96 | 71.11 ± 9.10 | 66.66 ± 5.96 | 58 | 78 | > 30 | – |
| O=C1N[C@@H](Cc2ccccc2)C(=O)N2CCC[C@@H]12 [DKP-3, cyclo (L-Pro-L-Phe)] | 34.7 ± 4.03 | 85.2 | 80 ± 5.96 | 80 ± 5.96 | 75.55 ± 4.12 | 80 ± 5.96 | 80 ± 5.96 | 75.55 ± 4.12 | 77.77 ± 9.10 | 80 ± 5.96 | 73.33 ± 5.96 | 68.88 ± 6.88 | 80 ± 5.96 | 69.22 ± 12 | 68 | 81 | > 30 | highest tumor growth inhibition rates |
| O=C1N[C@@H](Cc2ccc(O)cc2)C(=O)N2CCC[C@@H]12 [DKP-4, cyclo (L-Pro-L-Tyr)] | 42.1 ± 2.94 | 98 | 79 ± 3.96 | 82 ± 2.96 | 71.55 ± 5.12 | 79 ± 3.96 | 81 ± 2.96 | 70.34 ± 3.33 | 75.51 ± 3.32 | – | 70.54 ± 3.51 | 71.11 ± 2.44 | 79.3 ± 2.77 | 68.24 ± 5.89 | 60 | 74 | > 30 | – |
